From patent US12551479B2, “Acyl-protein thioesterase inhibitor for the treatment and/or prevention of Huntington's disease” (UNIVERSITÉ GRENOBLE ALPES, priority 2019, dated 2026)

Columns and labels:
melanoma cells = details: studies of Vujic et al., 2015; cited from earlier work
[1] = system: brain palmitoylated proteins; test: ABE (Acyl-Biotin-Exchange) assay on brain lysate; format: in vivo, mice
Protocol: In FIG. 4D, the graphic representation of the experiment set up to test the efficacy of the molecule to increase the level of palmitoylation in the brain 30 minutes after injection can be visualized. […] Brains were mechanically lysed in ice-cold buffer (1% IGEPAL CA-630; 50 mM Tris-HCl pH 7.5, 150 mM NaCl, 10% glycerol) containing 1:100 protease inhibitor cocktail (Sigma Aldrich P8340), 1 mM PMSF, 1:200 phosphatase inhibitor (Sigma Aldrich P5726), and 50 mM NEM (Sigma Aldrich E3876) to block free cystein. Brain lysates were rotated at 4° C. for 30 minutes before insoluble material was removed by centrifugation at 15.000 rpm for 10 minutes. Lysates were precleared by incubation with Dynabeads M-280 Streptavidin (Invitrogen 112.05D) for 30 minutes at 4° C. on the wheel. Proteins from precleared samples were then precipitated using chloroform-methanol assay. Each pellet was divided and resuspended in +HAM (2:3 of the pellet) (lysis buffer containing 1 mM HAM (Sigma 46780-4)) or −HAM (1:3 of the pellet) during 1 hour at room temperature on the wheel. Proteins were precipitated with chloroform-methanol method and the pellets were resuspended in Biotin-BMCC buffer (lysis buffer with 5 μM EZ-Link™ Biotin-BMCC (Thermo Fisher 21900)) for 1 hour at room temperature on the wheel. […]

[2] = system: WT and Hdh^CAG/+ corticostriatal network; test: Synapse density (adjacent SYP and PSD95 spots) in microfluidic corticostriatal network; format: cell-based, mouse; details: 1 μM daily
Protocol: In FIG. 3H, we can see the recording area that was chosen for the assessment of synapse density by quantifying the number of synaptophysin (SYP) spots, a presynaptic marker, and the number of PSD95 spots, a postsynaptic marker. FIG. 3I testifies that in the Hdh^CAG/+ microfluidic network, the number of synapses is decreased in the microfluidic devices.
For striatal StHdh cells, acute treatment was performed at 10 μM for 1 hour before and during the acquisition time. For neurons within the microchambers, treatments were started at DIV2 until DIV12 every day at 1 μM in each compartment of the microfluidic device.
The inventors then assessed synapse density by quantifying the number of synaptophysin spots (presynaptic marker, SYP) adjacent to PSD95 spots (postsynaptic marker) within synaptic chamber of the microfluidic device using high-resolution Airyscan confocal microscopy (FIG. 3H). In Hdh^CAG/+ network, the number of synapses is decreased in the microfluidic devices (FIG. 3I). […] However, this was not significant.

Hdh^CAG140/+ mice [3] = test: Rotarod test; format: in vivo, mouse; details: Hdh^CAG/+ mice
Protocol: (§1) Mice littermates were grouped into mixed treatment groups. Males and females were 6 months of age at the beginning of the treatment. For each specific test, all experimental groups were tested on the same day, during the light phase and between Days 16 and 28 of treatment. Prior to testing, mice were acclimatized to the test room for a period of 30 minutes. Treatments were randomly assigned and behavioral tests were performed 12 days before the end of the delivery of the treatment. […] Mice were excluded from analysis if their performance was calculated as a significant outlier by the Grubb test. One mouse was excluded based on these criteria. Mouse weights were measured prior to the start of treatment and until the end of testing.
The Rotarod apparatus was used to measure motor coordination and balance. Rotarod test was performed over 6 consecutive days, with 3 days of accelerated rotarod and then 3 days of fixed rotarod. […] The latency and speed at which mice fall off from the rotarod were measured up to 300 sec. For a fixed rotarod, mice were evaluated for 3 trials at 10, 15, and 20 rpm on days 4, 5, and 6, respectively. […] Data are expressed as the average of the 3 trials.

[4] = Pharmacokinetics after intraperitoneal injection, plasma and brain by LC-MS/MS; format: in vivo; details: mice, 2 mg/kg intraperitoneal
Protocol: The ability of the ML-348 molecule to freely cross the blood brain barrier is an additional argument towards the efficacy of the molecule in vivo in mice.
Plasma proteins were precipitated by adding 800 μL acetonitrile into 400 μL of sample. Brains were ground into 400 μL H2O before adding 800 μL acetonitrile. Samples were centrifuged to remove insoluble residues at 15.000 g for 5 minutes at 16° C. Supernatants were analyzed by LC-MS/MS. LC-MS/MS was assessed by high-performance liquid chromatography (UHPC) coupled with a triple quadrupole (Shimadzu LC-MS 8030). Analyses were performed from 3 mice for each time point.
Before investigating ML-348 in vivo, the inventors first evaluated the pharmacokinetics of the molecule. […] They then evaluated the efficacy of the molecule to increase brain palmitoylation level 30 minutes after injection. For this purpose, they performed an Acyl-Biotin-Exchange (ABE) assay to biotinylate palmitoylated proteins before their immunoprecipitation with streptavidin-coated beads (FIG. 4D).

Hdh^CAG140/+ mice [5] = test: Horizontal Ladder test; format: in vivo, mouse; details: Hdh^CAG/+ mice, 0.3 mg/kg/day subcutaneous infusion; values similar to wild-type
Protocol: as §1
A horizontal ladder is used to assess forelimb and hindlimb placement and coordination. The horizontal ladder is composed of two clear Plexiglas walls (69.50×15 cm) containing metal rungs (0.2 cm diameter) irregularly spaced (between 0.5 and 2 cm apart). Mice were habituated to walk on a horizontal ladder during two consecutive days (3 trials per day). Then the mice were tested (3 trials) with a different pattern than the two days of habituation. Test trials were videorecorded, and the motor performance as well as the latency to complete the task were quantified. Data are expressed as the average of the 3 trials.

O=C(CN1CCN(C(=O)c2ccco2)CC1)Nc1cc(C(F)(F)F)ccc1Cl [ML-348]
effect on melanoma cells (melanoma cells): no biologically significant effect | palmitoylation in brain (ABE, +HAM vs −HAM) ([1]; HdH^CAG/+ mice, 28 days of treatment, 0.3 mg/kg/day subcutaneous osmotic pump): increase palmitoylation | level of palmitoylation in brain lysates ([1]; mice injected with 0.3 mg/kg, 30 minutes after injection): increased | number of synapses (adjacent SYP and PSD95 spots) ([2]; Hdh^CAG/+ network): restored the number of synapses | number of synapses (adjacent SYP and PSD95 spots) ([2]; wild-type network, not statistically significant): slightly reduced synapse connectivity | average speed achieved on accelerated rotarod (Hdh^CAG140/+ mice [3]; 4 to 40 rpm in 600, 300, 120 s, statistically significant in the 300 s condition): recover motor coordination close to that of wild-type mice | performance on fixed speed rotarod (Hdh^CAG140/+ mice [3]; constant speed 10 and 15 rpm): significantly improved the performances | crossing of the blood brain barrier ([Brain]/[Plasma] values) ([4]; 30, 60 and 180 minutes): effectively crosses the blood brain barrier | degradation after injection (plasma and brain levels) ([4]; 60 minutes after injection): rapidly degraded | average error score (Hdh^CAG140/+ mice [5]): significant improvement | average time to cross the horizontal ladder (Hdh^CAG140/+ mice [5]): significant improvement
